For one data set, the system named is liver. The experiment in a line: Liver function tests on blood samples. The data set is classed as in vivo, mice. The conditions noted are these: after ten days of treatment. As for the experimental part:
Four groups of six male F1 hybrid mice (C57BL/6X DBA/2) 6-8 weeks old (20-25g body weight) were used for the study. […] Three additional mice were used as normal untreated controls.
In Examples VIII and IX, 8 mg/kg doses were administered intravenously.
The total number of nucleated cells, that is, the total number of total white blood cells, was counted with a Coulter counter and a blood film was prepared simultaneously for lymphocyte-to-neutrophil (L/N) ratio.
Liver function tests were performed on blood samples after ten days of treatment with the solutions (see Example III). Four doses were administered each day.

For a further data set, the system named is Colon 38 tumors. The experiment in a line: Antitumor tests, in vitro. The data set is classed as cell-based, murine. The conditions noted are these: Colon 38, in vitro, 21 days. As for the experimental part: Lewis lung murine tumors of the biological type lung carcinoma were implanted subcutaneously in the group B C57BL/6 mice. Colon 38 of the histological type colon carcinoma was implanted in group C57BL/6. Three mice from group A were implanted with Lewis lung tumors and the remaining three were implanted with colon 38 tumors subcutaneously. Three mice from control group D were implanted with Lewis lung tumors and three with colon 38 tumors.
The antitumor activity of both solutions was tested in vitro. Colon 38 tumors were used for in vitro screening of the antitumor effect. Tumors were place in 10ml solution of each of the agents. The tumors were removed after 21 days of culture growth and examined for weight loss and shrinkage in size.

A further data set relates to lung. The experiment in a line: Biodistribution by gamma camera with technicium Tc-99 m. The format is in vivo, mice. The conditions noted are these: Tc-99 m given 30 min after injection. As for the experimental part:
Four groups of six male F1 hybrid mice (C57BL/6X DBA/2) 6-8 weeks old (20-25g body weight) were used for the study. Group A received unconjugated cis-Platinum; the second group, B, received cis-Platinum conjugated with the organ-specific vectoring reagent macroaggregated albumin (MAA). Group C received cis-Platinum conjugated with colloidal sulfur particles. Group D was injected with MAA alone, with no cis-Platinum conjugated or unconjugated, and served as controls. Three additional mice were used as normal untreated controls.
(§1) All experimental animals were injected intravenously (IV) with 0.5 mg doses of cis-Platinum to a final concentration of […] body weight, maximum volume 0.2 mL/mouse. The above protocol was used in Examples II-VI. In Examples VIII and IX, 8 mg/kg doses were administered intravenously.
Thirty minutes after injecting the mice with either agent, one millicurie of technicium Tc-99 m was injected IV and the mice placed under a gamma camera to trace the cis-Platinum.
Similar patterns of activity were seen when both groups of mice were injected after three days.

Another data set deals with L1210 leukemia cells. Nature of the data set: Effect on in vivo tumor cells (L1210 leukemia). The arrangement: species or system DBA mice. The conditions noted are these: 8 mg/kg iv. As for the experimental part:
as §1
10^4 L1210 leukemia cells were transplanted intravenously (iv) into DBA mice. Three days later the animals received 8 mg/kg cis-Platinum in saline or 8 mg/kg cisplatinum-conjugate administered (iv) (3 animals/group)

The next data set has as its system K1210 leukemia cells. Nature of the data set: Effect on mice implanted with leukemia cells. The format is in vivo, DBF mice. The conditions noted are these: 8 mg/kg i.v. The procedure: as §1
DBF mice were planted intraperitoneally with 10^4 K1210 leukemia cells. Three days later, 8 mg/kg of cis-Platinum in saline and cis-Platinum conjugate preparation was given intravenously via a tail vein.

The next data set relates to bones. Nature of the data set: Progesterone delivery to bones (APAAP staining). The data set is classed as in vivo, mice. As for the experimental part:
Thirty-nine mg of finely divided progesterone were added to 2.4 ml of linking agent containing Composition C and injected into mice (see Example XII). The drug was examined for its presence in bones after 2days by taking sections of bone from ribs and staining the sections with monoclonal antibodies to progesterone using the […] labeling system as described by Cordell et al. in J. Histochem. Cytochem. 32:219 (1984).

Data set [1] can be described thus: Drug release in vitro by column elution method. The conditions noted are these: after 14 hrs, 37° C, saline 0.4 ml/min. The data set is classed as physicochemical. As for the experimental part:
Using the conjugate prepared in Example XXVI, the drug release was estimated in vitro by the column elution method described below.
2.0 ml of deionized water was added to 11.6 mg of dry (lyophilized) conjugate as prepared in Example XXVI. The slurry was pipetted into 140 ×7 mm glass columns. The ends of each of the columns were filled with chromatographic caps packed with glass wool. The ends were then attached to threaded zero-volume collectors and connected to 10 mm 1:0 teflon tubing. The columns were placed in a circulating water bath at 37 ° C. Saline was pumped through columns at 0.4 ml/min flow rate with an HPLC pump (ALTEX 110A). Fractions were collected as a function of time at 4° C. and analyzed by uv/vis spectroscopy method. Results: Approximately 20% drug release was found in samples taken after 14 hrs.

In the data set on liver, `N.N.[Cl-].[Cl-].[Pt+2]` [cis-Pt, cis-Platinum (II) Diammine Dichloride] yielded a Prothrombin clotting time of 16, an SGOT of 120, an SGPT of 112 and a Serum bilirubin of 3.8. In the data set on Colon 38 tumors, this compound came in with a Shrinkage of 41% and a Weight loss of 63%. In the data set on lung, the “distribution of the radioisotope in organs in the abdomen” value is listed as “even distribution of the radioisotope in all organs in the abdomen”. In addition, the “Incr. Life Span (ILS)” value in the data set on L1210 leukemia cells worked out at 111%. Besides, the “% ILS” value with K1210 leukemia cells was 80%.
With progesterone, the “delivery to the bones” value in the data set with bones (after 2 days, sections of rib bone) is reported as “effectively delivered to the bones”. Besides, the “retention in bones as an active molecule” value in the data set with bones (mouse, in vivo) was “up to 21 days”. Moreover, the drug release result in data set [1] was “Approximately 20%”.

These data come from US5225182A, “Vectored drug delivery system using a cephaloplastin linking agent and a methed of using the system” (priority 1991, dated 1993).
